From ChEMBL document CHEMBL2074432, “Human jejunal permeability of cyclosporin A: influence of surfactants on P-glycoprotein efflux in Caco-2 cells” (Pharm Res, 2003)

Biological target: ATP-dependent translocase ABCB1 (Homo sapiens, UniProt P08183)
Test: TP_TRANSPORTER: transepithelial transport of cyclosporin A in Caco-2 cells
Type: functional, cell-based

Chain of ATP-dependent translocase ABCB1 (P08183 whole entry): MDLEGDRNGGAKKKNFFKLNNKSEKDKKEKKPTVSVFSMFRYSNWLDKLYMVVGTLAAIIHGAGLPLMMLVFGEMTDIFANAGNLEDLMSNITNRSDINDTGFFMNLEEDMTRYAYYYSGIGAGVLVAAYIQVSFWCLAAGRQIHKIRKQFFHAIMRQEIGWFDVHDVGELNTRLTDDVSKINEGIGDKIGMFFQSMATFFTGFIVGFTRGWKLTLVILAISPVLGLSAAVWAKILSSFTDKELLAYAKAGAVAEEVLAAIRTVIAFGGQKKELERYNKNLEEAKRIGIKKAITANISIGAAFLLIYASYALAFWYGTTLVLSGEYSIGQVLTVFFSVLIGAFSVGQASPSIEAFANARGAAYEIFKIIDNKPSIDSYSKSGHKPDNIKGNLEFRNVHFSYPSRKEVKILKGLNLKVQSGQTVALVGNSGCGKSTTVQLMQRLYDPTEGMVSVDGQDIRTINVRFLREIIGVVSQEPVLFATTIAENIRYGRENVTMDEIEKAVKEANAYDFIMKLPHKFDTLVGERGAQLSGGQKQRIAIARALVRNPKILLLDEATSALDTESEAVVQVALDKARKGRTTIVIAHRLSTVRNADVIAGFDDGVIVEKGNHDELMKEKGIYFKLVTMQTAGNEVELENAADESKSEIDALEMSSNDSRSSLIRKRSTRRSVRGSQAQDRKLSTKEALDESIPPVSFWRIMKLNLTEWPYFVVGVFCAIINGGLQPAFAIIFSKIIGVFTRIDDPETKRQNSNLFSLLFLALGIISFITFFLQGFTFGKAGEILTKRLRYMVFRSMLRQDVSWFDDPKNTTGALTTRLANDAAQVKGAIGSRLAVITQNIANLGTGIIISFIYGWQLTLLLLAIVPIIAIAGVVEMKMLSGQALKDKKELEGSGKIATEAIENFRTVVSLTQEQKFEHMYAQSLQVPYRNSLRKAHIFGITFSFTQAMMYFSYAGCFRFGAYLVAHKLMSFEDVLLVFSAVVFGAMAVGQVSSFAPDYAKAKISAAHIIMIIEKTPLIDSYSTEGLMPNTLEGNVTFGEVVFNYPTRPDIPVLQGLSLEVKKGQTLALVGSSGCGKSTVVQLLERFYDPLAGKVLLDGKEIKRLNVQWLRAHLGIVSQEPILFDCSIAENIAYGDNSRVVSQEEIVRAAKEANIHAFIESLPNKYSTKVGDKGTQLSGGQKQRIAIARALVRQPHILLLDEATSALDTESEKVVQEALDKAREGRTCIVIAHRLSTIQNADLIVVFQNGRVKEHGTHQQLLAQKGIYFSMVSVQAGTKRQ

CREMOPHOR EL
Activity: inhibitor [+]

CREMOPHOR RH 40
Activity: inhibitor [+]
